Literature values, collected in US10308909B2, “Dried spore germinative compound mixtures” (Envera, LLC, priority 2013, dated 2019).

Key:
bacterial spores = settings: concentrations as low as

| Molecule | concentration that inhibits germination (bacterial spores) | inhibition of Bacillus germination (Bacillus) |
| --- | --- | --- |
| cresol | 0.08 % (wt./vol) |  |
| C[C@@H](N)C(=O)O [D-alanine] |  | powerful inhibitor of Bacillus germination |
| Oc1ccccc1 [phenol] | 0.2 % (wt./vol) |  |
